Laboratory results: US11684638B2, “Targeted delivery system, system components, and methods” (REGENTS OF THE UNIVERSITY OF MINNESOTA, priority 2016, dated 2023)

Assays:
MSCs [1] = assay: MSC cell viability, MTS assay; format: cell-based, human
Description: Cell viability was determined by MTS assay at 3 days, 5 days, and 7 days. After incubation for the designated time period, Ac4ManNAz-containing medium was exchanged with 500 μL of fresh growth medium and 100 μL of the MTS/PMS solution was added to each well. Cells were further incubated for one hour at 37° C. and soluble formazan produced by the live cells was measured at 490 nm using a microplate reader. Cells without Ac4ManNAz treatment were used as a control.

MSCs [2] = tested on: MSCs
Description: Various Ac4ManNAz concentrations were evaluated as follows. MSCs were seeded onto 96-well plate at a density of 1.5×10^3 cells/well in 150 μL of MSCM supplemented with 0, 1 μM, 5 μM, 10 μM, 20 μM, 50 μM, or 100 μM final concentration of Ac4ManNAz. After three days of incubation, the cells were washed twice with DPBS and treated with sulforhodamine B dibenzocyclooctyl (DBCO-sulforhodamine B) (20 μM final concentration) for one hour. Cells were rinsed five times with DPBS and images were taken using a fluorescence microscope. For quantitative analysis, cells treated with Ac4ManNAz were stained with DBCO-carboxyrhodamine and the fluorescence intensity (λex: 485 and λem: 528 nm) was measured using plate reader (FLx800 microplate fluorescence reader, BioTek Instruments, Inc., Winooski, Vt., USA).
Similarly, various Ac4ManNAz incubation times were evaluated by culturing MSCs in 20 μM Ac4ManNAz for different incubation times. The cells were treated as before for microscopy or quantitation of available azide groups. The treatments were staggered to perform the final analysis at the same time to maintain the cell number at the time of analysis.

[3] = tested on: subcutaneous A549-Luc tumors injected with MSC-Az or control MSC; assay: In vivo click chemistry with intravenous DBCO-Cy5.5; parameters: species or system athymic nude mice
Description: A549-Luc lung tumors were developed in athymic nude mice such that each animal has two tumors, one on each side of the abdomen. When the tumors reached about 100 mm^3, the animals received intratumoral injection (5×10^5 cells/100 μL) of control MSCs in one tumor and MSC-Az in the other tumor of the same animal. One hour following MSC injection, 5 μg of DBCO-Cy5.5 in 100 μL DPBS was injected intravenously per mice. DBCO-Cy5.5 binding to MSC-Az was monitored by imaging at different time intervals (0.5 hour, 1 hour, 5 hours, or 24 hours) using an IVIS Spectrum live animal imager (Xenogen Corp., Alameda, Calif.).

[4] = tested on: orthotopic ovarian tumors; assay: Antitumor efficacy of glycoengineered MSC pre-incubated with DBCO-functionalized paclitaxel nanoparticles (FIG. 10); format: in vivo, mice; settings: Kaplan-Meier; intraperitoneal; 2×10^6 MSC-Az; ABRAXANE at 40 mg/kg paclitaxel on day 0, 4, 8
Description: FIG. 10. Antitumor efficacy of glycoengineered MSC pre-incubated with DBCO-functionalized paclitaxel nanoparticles.
Saline-treated animals were used as […] control.

[5] = tested on: platinum-resistant C200 ovarian cancer cells; assay: Cytotoxicity in co-culture […] assay (FIG. 11); format: cell-based
Description: FIG. 11. IC50 of glycoengineered MSCs in platinum-resistant C200 ovarian cancer cells in co-culture using […] assay (Corning, Inc., Tewksbury, Mass.). The cytotoxic potential of glycoengineered MSCs was determined by co-culturing with C200 cells using a […] assay at 72 hours. For cytotoxicity assessment, C200 cells (20,000/well) were seeded in lower chamber of 24 well […] plate with different concentrations of glycoengineered MSCs in upper chamber. […] However, when incubated at 1:1 ratio of C200 to glycoengineered-MSCs, 75% cytotoxicity was observed.

Compound: CC(=O)OC[C@H]1OC(OC(C)=O)[C@@H](NC(=O)CN=[N+]=[N-])[C@@H](OC(C)=O)[C@@H]1OC(C)=O (some centres unmarked) [Ac4ManNAz, N-azidoacetylmannosamine-tetraacylated]
- cell viability of MSCs (MSCs [1]; 100 μM after five days of incubation): reduced
- viability of MSCs (MSCs [1]; up to 50 μM for seven days): unaffected
- azide expression on MSC surface by fluorophore labeling (MSCs [2]; 20 μM in culture media): highest expression levels
- surface coverage of azide groups (MSCs [2]; three days of incubation): highest surface coverage of azide groups

Compound: CCN1/C(=C/C=C/C=C/C2=[N+](CCCCCC(=O)NCCC(=O)N3Cc4ccccc4C#Cc4ccccc43)c3ccc4c(S(=O)(=O)[O-])cc(S(=O)(=O)O)cc4c3C2(C)C)C(C)(C)c2c1ccc1c(S(=O)(=O)O)cc(S(=O)(=O)O)cc21 [DBCO-Cy5.5]
- MSC-Az associated fluorescence in tumor ([3]; 24 hours post injection): found even at 24 hours
- fluorescent label in tumors ([3]; one hour post intravenous dosing): detected only in the tumors injected with MSC-Az

Compound: CC(=O)O[C@H]1C(=O)[C@@]2(C)[C@H]([C@H](OC(=O)c3ccccc3)[C@]3(O)C[C@H](OC(=O)[C@H](O)[C@@H](NC(=O)c4ccccc4)c4ccccc4)C(C)=C1C3(C)C)[C@]1(OC(C)=O)CO[C@@H]1C[C@@H]2O [PTX solution, paclitaxel]
- median survival [4]: 50 days
- IC50 [5]: 4.16 nM
